pIC50: −log10 of the molar value.
System: MCF7 complex spheroid growth, % test/control
Test: Anticancer human tumor MCF7 cell line growth inhibition [Asc];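 further: spheroids exposed to compounds for 7 days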;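 on viability, T/C: 100% = DMSO vehicle control wells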
Conditions: for viability, T/C: stronger effect = lower value
In short: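 Stromal components (HUVEC and hMSC) are co-assembled with the cancer cells into multicellular spheroids. Drugs are then added singly or paired, at concentrations falling by half-log increments from a clinically achievable maximum, capped at 10 microM without known Cmax.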

Cc1nc(N2CCC3(CC2)COC(C)C3N)c(CO)nc1Sc1ccnc(N)c1Cl (configuration not stated) + CCN1C(C(=O)NC23CCC(C(=O)O)(CC2)CC3)C(c2cccc(Cl)c2F)C2(C(=O)Nc3cc(Cl)ccc32)C12CCCCC2
pIC50 (curve of first compound, second compound 0.00949 µM): 5.86
pIC50 (curve of first compound, second compound 0.03 µM): 6.31
pIC50 (curve of first compound, second compound 0.0949 µM): > 8.02
pIC50 (curve of first compound, second compound 0.3 µM): > 8.02
pIC50 (curve of first compound, second compound 0.949 µM): > 8.02
pIC50 (curve of first compound, second compound 3 µM): > 8.02
viability, T/C (second compound 0.00949 µM, first compound 0.00949 µM): 109%
viability, T/C (second compound 0.00949 µM, first compound 0.03 µM): 115%
viability, T/C (second compound 0.00949 µM, first compound 0.0949 µM): 94.4%
viability, T/C (second compound 0.00949 µM, first compound 0.3 µM): 99.9%
viability, T/C (second compound 0.00949 µM, first compound 0.949 µM): 66.8%
viability, T/C (second compound 0.00949 µM, first compound 3 µM): 12.5%
viability, T/C (second compound 0.03 µM, first compound 0.00949 µM): 86.4%
viability, T/C (second compound 0.03 µM, first compound 0.03 µM): 79.1%
viability, T/C (second compound 0.03 µM, first compound 0.0949 µM): 88.5%
viability, T/C (second compound 0.03 µM, first compound 0.3 µM): 77.3%
viability, T/C (second compound 0.03 µM, first compound 0.949 µM): 14%
viability, T/C (second compound 0.03 µM, first compound 3 µM): 11.1%
viability, T/C (second compound 0.0949 µM, first compound 0.00949 µM): 50.3%
viability, T/C (second compound 0.0949 µM, first compound 0.03 µM): 41.9%
viability, T/C (second compound 0.0949 µM, first compound 0.0949 µM): 43.7%
viability, T/C (second compound 0.0949 µM, first compound 0.3 µM): 29.9%
viability, T/C (second compound 0.0949 µM, first compound 0.949 µM): 9.42%
viability, T/C (second compound 0.0949 µM, first compound 3 µM): 10.3%
viability, T/C (second compound 0.3 µM, first compound 0.00949 µM): 26%
viability, T/C (second compound 0.3 µM, first compound 0.03 µM): 22.8%
viability, T/C (second compound 0.3 µM, first compound 0.0949 µM): 20.8%
viability, T/C (second compound 0.3 µM, first compound 0.3 µM): 18.5%
viability, T/C (second compound 0.3 µM, first compound 0.949 µM): 5.2%
viability, T/C (second compound 0.3 µM, first compound 3 µM): 7.09%
viability, T/C (second compound 0.949 µM, first compound 0.00949 µM): 13.7%
viability, T/C (second compound 0.949 µM, first compound 0.03 µM): 13.6%
viability, T/C (second compound 0.949 µM, first compound 0.0949 µM): 12.8%
viability, T/C (second compound 0.949 µM, first compound 0.3 µM): 6.58%
viability, T/C (second compound 0.949 µM, first compound 0.949 µM): 5.44%
viability, T/C (second compound 0.949 µM, first compound 3 µM): 5.91%
viability, T/C (second compound 3 µM, first compound 0.00949 µM): 11.4%
viability, T/C (second compound 3 µM, first compound 0.03 µM): 8.37%
viability, T/C (second compound 3 µM, first compound 0.0949 µM): 10.1%
viability, T/C (second compound 3 µM, first compound 0.3 µM): 6.66%
viability, T/C (second compound 3 µM, first compound 0.949 µM): 6.63%
viability, T/C (second compound 3 µM, first compound 3 µM): 11.7%

Cc1c(S(C)(=O)=O)c(-c2cc(F)cc(N3CCN(c4ccc(NS(=O)(=O)c5ccc(NC(CCN6CCC(C(=O)OCCCP(=O)(O)O)CC6)CSc6ccccc6)c(S(=O)(=O)C(F)(F)F)c5)cc4)CC3)c2)c(-c2ccc(Cl)cc2)n1C(C)C (configuration not stated)
viability, T/C (compound 0.0316 µM): 90.5% [middle of 7 runs]
viability, T/C (compound 10 µM): 166% [middle of 7 runs]
pIC50 (compound alone, run of 11/07/2022): < 5.00

O=C(c1cc(Cc2n[nH]c(=O)c3ccccc23)ccc1F)N1CCN(C(=O)C2CC2)CC1 + Cc1c(S(C)(=O)=O)c(-c2cc(F)cc(N3CCN(c4ccc(NS(=O)(=O)c5ccc(NC(CCN6CCC(C(=O)OCCCP(=O)(O)O)CC6)CSc6ccccc6)c(S(=O)(=O)C(F)(F)F)c5)cc4)CC3)c2)c(-c2ccc(Cl)cc2)n1C(C)C
pIC50 (curve of first compound, second compound 0.0316 µM): < 5.00
pIC50 (curve of first compound, second compound 0.1 µM): < 5.00
pIC50 (curve of first compound, second compound 0.316 µM): < 5.00
pIC50 (curve of first compound, second compound 1 µM): 5.10
pIC50 (curve of first compound, second compound 3.16 µM): 5.15
pIC50 (curve of first compound, second compound 10 µM): 5.07
viability, T/C (second compound 0.0316 µM, first compound 0.0316 µM): 95.8%
viability, T/C (second compound 0.0316 µM, first compound 0.1 µM): 99.9%
viability, T/C (second compound 0.0316 µM, first compound 0.316 µM): 118%
viability, T/C (second compound 0.0316 µM, first compound 1 µM): 95.9%
viability, T/C (second compound 0.0316 µM, first compound 3.16 µM): 80.5%
viability, T/C (second compound 0.0316 µM, first compound 10 µM): 54.3%
viability, T/C (second compound 0.1 µM, first compound 0.0316 µM): 117%
viability, T/C (second compound 0.1 µM, first compound 0.1 µM): 99.8%
viability, T/C (second compound 0.1 µM, first compound 0.316 µM): 87%
viability, T/C (second compound 0.1 µM, first compound 1 µM): 99.4%
viability, T/C (second compound 0.1 µM, first compound 3.16 µM): 84.5%
viability, T/C (second compound 0.1 µM, first compound 10 µM): 57.6%
viability, T/C (second compound 0.316 µM, first compound 0.0316 µM): 117%
viability, T/C (second compound 0.316 µM, first compound 0.1 µM): 109%
viability, T/C (second compound 0.316 µM, first compound 0.316 µM): 101%
viability, T/C (second compound 0.316 µM, first compound 1 µM): 93.7%
viability, T/C (second compound 0.316 µM, first compound 3.16 µM): 72.8%
viability, T/C (second compound 0.316 µM, first compound 10 µM): 52.5%
viability, T/C (second compound 1 µM, first compound 0.0316 µM): 119%
viability, T/C (second compound 1 µM, first compound 0.1 µM): 107%
viability, T/C (second compound 1 µM, first compound 0.316 µM): 91.9%
viability, T/C (second compound 1 µM, first compound 1 µM): 105%
viability, T/C (second compound 1 µM, first compound 3.16 µM): 88.9%
viability, T/C (second compound 1 µM, first compound 10 µM): 40.4%
viability, T/C (second compound 3.16 µM, first compound 0.0316 µM): 108%
viability, T/C (second compound 3.16 µM, first compound 0.1 µM): 72.5%
viability, T/C (second compound 3.16 µM, first compound 0.316 µM): 79.1%
viability, T/C (second compound 3.16 µM, first compound 1 µM): 93.6%
viability, T/C (second compound 3.16 µM, first compound 3.16 µM): 68.2%
viability, T/C (second compound 3.16 µM, first compound 10 µM): 42.4%
viability, T/C (second compound 10 µM, first compound 0.0316 µM): 82.6%
viability, T/C (second compound 10 µM, first compound 0.1 µM): 84.4%
viability, T/C (second compound 10 µM, first compound 0.316 µM): 74.6%
viability, T/C (second compound 10 µM, first compound 1 µM): 86.9%
viability, T/C (second compound 10 µM, first compound 3.16 µM): 76.3%
viability, T/C (second compound 10 µM, first compound 10 µM): 45.4%
